The experiment addresses His6-TEV-PDGFRβ (557-1016) (Homo sapiens (Human), UniProt P09619). As to the kind of experiment: PDGFRβ HTRF Assay. The experiment is classed as biochemical. The following applies: read-out: PDGFR HTRF IC50. Summed up: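 HTRF KinEASE-TK readout (665/620 nm ratio) of TK-biotin substrate phosphorylation by His-tagged PDGFRβ kinase domain. Enzyme and inhibitor preincubated 30 min, then ATP/substrate added for 3 h at room temperature before 60 min EDTA quench/detection.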
Background: In TR-FRET formats the signal depends on donor and acceptor labels being close together.
His6-TEV-PDGFRβ (557-1016), sequence (P09619 557-1016): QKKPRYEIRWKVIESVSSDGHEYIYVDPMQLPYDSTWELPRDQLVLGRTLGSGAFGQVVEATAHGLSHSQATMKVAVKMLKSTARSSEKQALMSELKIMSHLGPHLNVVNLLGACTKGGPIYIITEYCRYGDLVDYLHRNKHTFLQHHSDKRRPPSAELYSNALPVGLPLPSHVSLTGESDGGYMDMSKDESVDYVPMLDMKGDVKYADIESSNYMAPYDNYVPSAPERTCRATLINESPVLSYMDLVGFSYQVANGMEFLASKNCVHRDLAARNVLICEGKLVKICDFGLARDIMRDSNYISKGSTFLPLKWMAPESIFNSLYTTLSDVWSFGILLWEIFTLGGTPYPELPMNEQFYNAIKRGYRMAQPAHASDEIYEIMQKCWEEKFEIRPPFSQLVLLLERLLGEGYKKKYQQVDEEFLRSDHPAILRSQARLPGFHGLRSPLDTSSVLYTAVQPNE
As for `Cc1ncc(C(=O)NCCN2CCCC2(C)C)cc1NC(=O)c1cnn2cc(-c3cncc(S(C)(=O)=O)c3)sc12` [Example 230, N-(5-((2-(2,2-dimethylpyrrolidin-1-yl)ethyl)carbamoyl)-2-methylpyridin-3-yl)-2-(5-(methylsulfonyl)pyridin-3-yl)pyrazolo[5,1-b]thiazole-7-carboxamide], the IC50 (commonly the concentration at which inhibition is half-maximal) came out at 3.2 nM.

Take `Cc1ncc(C(=O)NCCN2CCCC2(C)C)cc1NC(=O)c1cnn2cc(-c3c(C)n[nH]c3C)sc12` [Example 231, 2-(3,5-Dimethyl-1H-pyrazol-4-yl)-N-(5-((2-(2,2-dimethylpyrrolidin-1-yl)ethyl)carbamoyl)-2-methylpyridin-3-yl)pyrazolo[5,1-b]thiazole-7-carboxamide]: the half-inhibitory concentration (IC50) is 0.4 nM.

On to `Cc1ncc(NC(=O)CN2CCN(C)CC2)cc1NC(=O)c1cnn2cc(-c3cnn(C)c3)sc12` [Example 232, 2-(1-methyl-1H-pyrazol-4-yl)-N-(2-methyl-5-(2-(4-methylpiperazin-1-yl)acetamido)pyridin-3-yl)pyrazolo[5,1-b]thiazole-7-carboxamide], for which the IC50 is 25.9 nM.

On to `COc1ncccc1-c1cn2ncc(C(=O)Nc3cc(NC(=O)CN4CCCC4(C)C)cnc3C)c2s1` [Example 233, N-(5-(2-(2,2-dimethylpyrrolidin-1-yl)acetamido)-2-methylpyridin-3-yl)-2-(2-methoxypyridin-3-yl)pyrazolo[5,1-b]thiazole-7-carboxamide], for which the IC50 was 0.2 nM.

As to `Cc1ncc(C(=O)NCCNCCO)cc1NC(=O)c1cnn2cc(-c3cnn(C)c3)sc12` [Example 234, N-(5-((2-((2-hydroxyethyl)amino)ethyl)carbamoyl)-2-methylpyridin-3-yl)-2-(1-methyl-1H-pyrazol-4-yl)pyrazolo[5,1-b]thiazole-7-carboxamide], the half-maximal inhibitory concentration (IC50) turned out to be 4.6 nM.

On to `Cc1ncc(C(=O)NCCN(CCO)CC2CCCCC2)cc1NC(=O)c1cnn2cc(-c3cnn(C)c3)sc12` [Example 235, N-(5-((2-((cyclohexylmethyl)(2-hydroxyethyl)amino)ethyl)carbamoyl)-2-methylpyridin-3-yl)-2-(1-methyl-1H-pyrazol-4-yl)pyrazolo[5,1-b]thiazole-7-carboxamide], for which the 50% inhibitory concentration (IC50) was 0.5 nM.

In the case of `Cc1ncc(C(=O)NC[C@H]2CCCN2CCO)cc1NC(=O)c1cnn2cc(-c3cnn(C)c3)sc12` [Example 236, (R)—N-(5-(((1-(2-hydroxyethyl)pyrrolidin-2-yl)methyl)carbamoyl)-2-methylpyridin-3-yl)-2-(1-methyl-1H-pyrazol-4-yl)pyrazolo[5,1-b]thiazole-7-carboxamide], the concentration for half-maximal inhibition (IC50) came out at 2.1 nM.

Regarding `Cc1ncc(C(=O)NC2CN(C(C)(C)C)C2)cc1NC(=O)c1cnn2cc(-c3cnn(C)c3)sc12` [Example 237, N-(5-((1-(tert-butyl)azetidin-3-yl)carbamoyl)-2-methylpyridin-3-yl)-2-(1-methyl-1H-pyrazol-4-yl)pyrazolo[5,1-b]thiazole-7-carboxamide], the IC50 turned out to be 1.4 nM.

For `Cc1ncc(C(=O)NC2CN(C(C)(C)C)C2)cc1NC(=O)c1cnn2cc(-c3cccc4c3cnn4C)sc12` [Example 238, N-(5-((1-(tert-butyl)azetidin-3-yl)carbamoyl)-2-methylpyridin-3-yl)-2-(1-methyl-1H-indazol-4-yl)pyrazolo[5,1-b]thiazole-7-carboxamide], the half-inhibitory concentration (IC50) was determined as 0.4 nM.

Consider `Cc1ncc(C(=O)N2CC2CNC(C)(C)C)cc1NC(=O)c1cnn2cc(-c3cccc4c3cnn4C)sc12` (centres unmarked) [Example 239, N-(5-(2-((tert-butylamino)methyl)aziridine-1-carbonyl)-2-methylpyridin-3-yl)-2-(1-methyl-1H-indazol-4-yl)pyrazolo[5,1-b]thiazole-7-carboxamide], for which the IC50 worked out at 5 nM.

On to `Cc1ncc(C(=O)NCCN2CCCC2(C)C)cc1NC(=O)c1cnn2cc(-c3cccc4c3cnn4C)sc12` [Example 240, N-(5-((2-(2,2-dimethylpyrrolidin-1-yl)ethyl)carbamoyl)-2-methylpyridin-3-yl)-2-(1-methyl-1H-indazol-4-yl)pyrazolo[5,1-b]thiazole-7-carboxamide], for which the half-inhibitory concentration (IC50) worked out at 0.3 nM.

In the case of `Cc1ncc(NC(=O)CCN2CCCC2(C)C)cc1NC(=O)c1cnn2cc(-c3cccc4c3cnn4C)sc12` [Example 241, N-(5-(3-(2,2-dimethylpyrrolidin-1-yl)propanamido)-2-methylpyridin-3-yl)-2-(1-methyl-1H-indazol-4-yl)pyrazolo[5,1-b]thiazole-7-carboxamide], the half-maximal inhibitory concentration (IC50) amounted to 0.1 nM.

In the case of `COc1ncccc1-c1cn2ncc(C(=O)Nc3cc(C(=O)NCCN4CCC[C@H]4C)cnc3C)c2s1` [Example 242, (R)-2-(2-methoxypyridin-3-yl)-N-(2-methyl-5-((2-(2-methylpyrrolidin-1-yl)ethyl)carbamoyl)pyridin-3-yl)pyrazolo[5,1-b]thiazole-7-carboxamide], the half-maximal inhibitory concentration (IC50) worked out at 0.2 nM.

Regarding `Cc1ncc(NC(=O)OC[C@@H]2CCCN2C)cc1NC(=O)c1cnn2cc(-c3cnn(C)c3)sc12` [Example 243, (S)-(1-methylpyrrolidin-2-yl)methyl (6-methyl-5-(2-(1-methyl-1H-pyrazol-4-yl)pyrazolo[5,1-b]thiazole-7-carboxamido)pyridin-3-yl)carbamate], the IC50 was found to be 0.5 nM.

Regarding `Cc1ncc(NC(=O)OC[C@H]2CCCN2C)cc1NC(=O)c1cnn2cc(-c3cnn(C)c3)sc12` [Example 244, (R)-(1-methylpyrrolidin-2-yl)methyl (6-methyl-5-(2-(1-methyl-1H-pyrazol-4-yl)pyrazolo[5,1-b]thiazole-7-carboxamido)pyridin-3-yl)carbamate], the IC50 came to 0.5 nM.

Turning to `Cc1ncc(NC(=O)OC[C@@H]2CCCN2C(C)C)cc1NC(=O)c1cnn2cc(-c3cnn(C)c3)sc12` [Example 245, (S)-(1-isopropylpyrrolidin-2-yl)methyl (6-methyl-5-(2-(1-methyl-1H-pyrazol-4-yl)pyrazolo[5,1-b]thiazole-7-carboxamido)pyridin-3-yl)carbamate], the half-maximal inhibitory concentration (IC50) amounted to 0.4 nM.

On to `Cc1ncc(NC(=O)OCCN2CCCC2)cc1NC(=O)c1cnn2cc(-c3cnn(C)c3)sc12` [Example 246, 2-(pyrrolidin-1-yl)ethyl (6-methyl-5-(2-(1-methyl-1H-pyrazol-4-yl)pyrazolo[5,1-b]thiazole-7-carboxamido)pyridin-3-yl)carbamate], for which the IC50 stood at 1.4 nM.

In the case of `Cc1ncc(NC(=O)OCCN2CCCC2(C)C)cc1NC(=O)c1cnn2cc(-c3cnn(C)c3)sc12` [Example 247, 2-(2,2-dimethylpyrrolidin-1-yl)ethyl (6-methyl-5-(2-(1-methyl-1H-pyrazol-4-yl)pyrazolo[5,1-b]thiazole-7-carboxamido)pyridin-3-yl)carbamate], the IC50 stood at 0.6 nM.

Regarding `Cc1ncc(NC(=O)OCC(C)N2CCCC2)cc1NC(=O)c1cnn2cc(-c3cnn(C)c3)sc12` (centres unmarked) [Example 248, 2-(pyrrolidin-1-yl)propyl (6-methyl-5-(2-(1-methyl-1H-pyrazol-4-yl)pyrazolo[5,1-b]thiazole-7-carboxamido)pyridin-3-yl)carbamate], the concentration for half-maximal inhibition (IC50) is 0.4 nM.

For `Cc1ncc(NC(=O)OCC(C)(C)N2CCCC2)cc1NC(=O)c1cnn2cc(-c3cnn(C)c3)sc12` [Example 249, 2-methyl-2-(pyrrolidin-1-yl)propyl (6-methyl-5-(2-(1-methyl-1H-pyrazol-4-yl)pyrazolo[5,1-b]thiazole-7-carboxamido)pyridin-3-yl)carbamate], the IC50 is 0.5 nM.

(Values after patent US20240109917A1 (ACTELION PHARMACEUTICALS LTD, priority 2020, published 2024).)
